# Data taken from patent US9044038B2, “Method of improving sweetness qualities of stevia extract” (SAN-EI GEN F.F.I., INC., priority 2007, dated 2015).
# Peptide text beside a SMILES is read from it.
# What was measured:
# panelists [1] = assay: Improvement in sweetness quality of sweeteners by additives, panel score (Example 14); assay type: in vivo; conditions: for improvement in the sweetness quality of stevia extract: additive added to 0.03% stevia extract aqueous solution; for improvement in sweetness quality, average score of twelve panelists: vs sweetener alone, 2 improvement, 1 slight improvement, 0 no improvement
# Description: Aqueous solutions containing various sweeteners (stevia extract, siraitia grosvenori extract, licorice extract, thaumatin, aspartame, and neotame) in the concentrations shown in Table 20 were prepared. […] The evaluation was conducted by scoring the improvement in sweetness quality based on the criteria described below in comparison with an aqueous solution containing only each of the sweeteners (Control).
# panelists [2] = assay: as above; assay type: in vivo; conditions: additive added to 0.03% stevia extract aqueous solution
# [3] = Concentration of sweetener with the same degree of sweetness as a 6% aqueous sucrose solution (Example 14, Table 20); assay type: in vivo
# Description: Aqueous solutions containing various sweeteners (stevia extract, siraitia grosvenori extract, licorice extract, thaumatin, aspartame, and neotame) in the concentrations shown in Table 20 were prepared.
# [4] = Concentration having the same degree of sweetness as a 5% aqueous sucrose solution (Example 1, Table 1); assay type: in vivo
# Excerpt: The degree of sweetness of rebaudioside A and that of mogroside V depends on the pH. […] Citric acid and trisodium citrate were used to prepare pH3 and pH4.5 solutions, and sodium bicarbonate was used to prepare pH7 solutions.
# [5] = general statement in description; cited from earlier work
# [6] = additive Gentiooligosaccharide (Gentose#45) 0.4%
# [7] = additive Highly branched cyclic dextrin (Cluster Dextrin) 0.07%
# [8] = additive Magnesium chloride 0.05%
# [9] = additive Magnesium sulfate 0.05%
Molecule,remaining aftertaste of sweetness in stevia extract (panelists [2]),richness (body) of stevia extract (panelists [2]),Concentration (%) exhibiting the same degree of sweetness as a 6% aqueous sucrose solution [3] [%],"improvement in sweetness quality, average score of twelve panelists (panelists [1]; [6]) [points]","improvement in sweetness quality, average score of twelve panelists (panelists [1]; [7]) [points]","improvement in sweetness quality, average score of twelve panelists (panelists [1]; [8]) [points]","improvement in sweetness quality, average score of twelve panelists (panelists [1]; [9]) [points]","improvement in sweetness quality, average score of twelve panelists (panelists [1]; additive Naringin 0.0025%) [points]",also measured
"O=S(=O)([O-])[O-].[Mg+2] [Magnesium sulfate, magnesium sulfate]",reduced,increased,–,–,–,–,–,–,improvement in the sweetness quality of stevia extract (panelists [1]): remarkably excellent improvements
thaumatin,–,–,0.0024,0.8,0.5,1.0,1.3,0.7,–
"COC(=O)[C@H](Cc1ccccc1)NC(=O)[C@@H](N)CC(=O)O [Aspartame, aspartame] (H-Asp-Phe-OMe)",–,–,0.038,0.3,0.3,0.8,0.7,0.3,–
"[Cl-].[Cl-].[Mg+2] [Magnesium chloride, magnesium chloride]",reduced,increased,–,–,–,–,–,–,improvement in the sweetness quality of stevia extract (panelists [1]): remarkably excellent improvements
"C[C@@H]1O[C@@H](O[C@H]2[C@H](Oc3cc(O)c4c(c3)O[C@H](c3ccc(O)cc3)CC4=O)O[C@H](CO)[C@@H](O)[C@@H]2O)[C@H](O)[C@H](O)[C@H]1O [Naringin, naringin]",reduced,increased,–,–,–,–,–,–,–
"C=C1C[C@@]23CC[C@H]4[C@@](C)(CCC[C@@]4(C)C(=O)O[C@@H]4O[C@H](CO)[C@@H](O)[C@H](O)[C@H]4O)[C@@H]2CC[C@]1(O[C@@H]1O[C@H](CO)[C@@H](O)[C@H](O[C@@H]2O[C@H](CO)[C@@H](O)[C@H](O)[C@H]2O)[C@H]1O[C@@H]1O[C@H](CO)[C@@H](O)[C@H](O)[C@H]1O)C3 [Rebaudioside A, rebaudioside A]",–,–,–,–,–,–,–,–,"concentration having the same degree of sweetness as a 5% aqueous sugar solution ([4]; pH 3, substance singly): 0.0228%; concentration having the same degree of sweetness as a 5% aqueous sugar solution ([4]; pH 4.5, substance singly): 0.0219%; concentration having the same degree of sweetness as a 5% aqueous sugar solution ([4]; pH 7, substance singly): 0.02%"
"COC(=O)[C@H](Cc1ccccc1)NC(=O)[C@H](CC(=O)O)NCCC(C)(C)C [Neotame, neotame]",–,–,0.0008,0.8,0.8,0.8,0.8,1.0,–
"C[C@H](CC[C@@H](O[C@@H]1O[C@H](CO[C@@H]2O[C@H](CO)[C@@H](O)[C@H](O)[C@H]2O)[C@@H](O)[C@H](O)[C@H]1O[C@@H]1O[C@H](CO)[C@@H](O)[C@H](O)[C@H]1O)C(C)(C)O)[C@H]1CC[C@@]2(C)[C@@H]3CC=C4[C@@H](CC[C@H](O[C@@H]5O[C@H](CO[C@@H]6O[C@H](CO)[C@@H](O)[C@H](O)[C@H]6O)[C@@H](O)[C@H](O)[C@H]5O)C4(C)C)[C@]3(C)[C@H](O)C[C@]12C [Mogroside V, mogroside V]",–,–,–,–,–,–,–,–,"concentration having the same degree of sweetness as a 5% aqueous sugar solution ([4]; pH 3, substance singly): 0.03%; concentration having the same degree of sweetness as a 5% aqueous sugar solution ([4]; pH 4.5, substance singly): 0.03%; concentration having the same degree of sweetness as a 5% aqueous sugar solution ([4]; pH 7, substance singly): 0.0255%; degree of sweetness (sweetness intensity) [5]: about 300 times that of sucrose"
